Among the data in patent publication US20260274829A1, “NEW E3 UBIQUITIN LIGASE LIGAND, PROTEIN DEGRADATION AGENT AND USE THEREOF” (GLUETACS THERAPEUTICS (SHANGHAI) CO., LTD., priority 2023, published 2026) are IC50 values, retold here.

Each structure is given as a SMILES string.

T1 sequence (Q96SW2 whole entry): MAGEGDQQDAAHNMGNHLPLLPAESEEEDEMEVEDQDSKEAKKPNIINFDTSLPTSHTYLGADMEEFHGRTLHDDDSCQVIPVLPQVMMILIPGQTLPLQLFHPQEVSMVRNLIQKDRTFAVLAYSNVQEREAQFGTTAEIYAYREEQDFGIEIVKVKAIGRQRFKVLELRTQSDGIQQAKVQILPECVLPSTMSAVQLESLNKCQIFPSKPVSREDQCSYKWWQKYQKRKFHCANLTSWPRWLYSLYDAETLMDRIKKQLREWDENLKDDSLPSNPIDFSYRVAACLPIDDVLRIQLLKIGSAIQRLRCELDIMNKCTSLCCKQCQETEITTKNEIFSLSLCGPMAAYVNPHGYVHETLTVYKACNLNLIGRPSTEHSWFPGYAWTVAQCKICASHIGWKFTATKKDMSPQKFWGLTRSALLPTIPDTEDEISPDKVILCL

This test concerns the target T1, human Cereblon WT GST-tagged protein (Homo sapiens, UniProt Q96SW2).
T1 construct: purchased CISBIO 64BDCRBNPEH
Kind of test: CRBN binding, HTRF CEREBLON BINDING kit. The following applies: CRBN binding, HTRF CEREBLON BINDING kit. The procedure: The CEREBLON BINDING kits (specification: 10,000 tests; product number: Catalog #64BDCRBNPEH; CISBIO company) was used to determine the CRBN binding ability of the compounds to be tested through a HTRF method (homogeneous time-resolved fluorescence). The specific methods are as follows: • 1. […] Then, 2.5 μL of human Cereblon WT GST-tagged protein solution was added to each well. Finally, 5 μL of the thoroughly mixed Thalidomide-Re reagent and GST Eu antibody working solution were added to each of the aforementioned wells. […] The blank control wells were sequentially added with 2.5 μL of diluent #9 (1×) solution, 2.5 μL of binding buffer, and 5 μL of thoroughly mixed Thalidomide-Re reagent and GST Eu antibody working solution. • 4. After sealing and incubating the solutions in the aforementioned wells at room temperature for 3 hours, the absorbance values at emission wavelengths of 620 nm and 665 nm were detected by the HTRF method using a Spark microplate reader (V3.1 SP1).
The corresponding CRBN binding inhibition rate was calculated using the following method:
[formula] [formula] [formula] • Note: OD 665 nmcompound is the absorbance value of each well of the compounds to be tested of the present disclosure at an emission wavelength of 665 nm. • OD 620 nmcompound is the absorbance value of each well of the compounds to be tested of the present disclosure at an emission wavelength of 620 nm. • OD 665 nmcontrol is the absorbance value of the blank control well at an emission wavelength of 665 nm. • OD 620 nmcontrol is the absorbance value of the blank control well at an emission wavelength of 620 nm. • OD 665 nmStd0 is the absorbance value of the solvent control well at an emission wavelength of 665 nm. • OD 620 nmStd0 is the absorbance value of the solvent control well at an emission wavelength of 620 nm.
On the technique in general: In TR-FRET formats the signal depends on donor and acceptor labels being close together.
As a reminder, the IC50 is the concentration that inhibits the measured activity by half. On to `CNC(=O)c1ccc(N2C(=S)N(c3ccc(C#N)c(C(F)(F)F)c3)C(=O)C2(C)C)cc1F` [Enzalutamide], for which the IC50 was above 10 µM. The figure for `COc1cc(N2CCC(N3CCN(Cc4cccc(N5CCC(=O)NC5=O)c4)CC3)CC2)c(C)cc1Nc1ncc(Br)c(Nc2ccc3nccnc3c2P(C)(C)=O)n1` [GT-04260, 1-(3-((4-(1-(4-((5-bromo-4-((5-(dimethylphosphoryl)quinoxalin-6-yl)amino)pyrimidin-2-yl)amino)-5-methoxy-2-methylphenyl)piperidin-4-yl)piperazin-1-yl)methyl)phenyl)dihydropyrimidine-2,4(1H,3H)-dione] is 1 to 1.9 µM; for `COc1cc2nn(C3CCN(Cc4ccc(C5CCC(=O)NC5=O)cc4)CC3)cc2cc1NC(=O)c1cccc(C(F)(F)F)c1` (centres unmarked) [GT-04747, N-(2-(1-(4-(2,6-dioxopiperidin-3-yl)benzyl)piperidin-4-yl)-6-methoxy-2H-indazol-5-yl)-3-(trifluoromethyl)benzamide] it is 0.5 to 1 µM.

In the case of `COc1cc2nn(C3CCN(Cc4ccc(C5CCC(=O)NC5=O)c(F)c4)CC3)cc2cc1NC(=O)c1cccc(C(F)(F)F)c1` (centres unmarked) [GT-04748, N-(2-(1-(4-(2,6-dioxopiperidin-3-yl)-3-fluorobenzyl)piperidin-4-yl)-6-methoxy-2H-indazol-5-yl)-3-(trifluoromethyl)benzamide], the IC50 was 1 to 1.9 µM.

In turn, `COc1cc2nn(C3CCN(Cc4cccc(NC5CCC(=O)NC5=O)c4)CC3)cc2cc1NC(=O)c1cccc(C(F)(F)F)c1` (centres unmarked) [GT-04749, N-(2-(1-(3-((2,6-dioxopiperidin-3-yl)amino)benzyl)piperidin-4-yl)-6-methoxy-2H-indazol-5-yl)-3-(trifluoromethyl)benzamide] displayed a half-maximal inhibitory concentration (IC50) of 1 to 1.9 µM. `COc1cc2nn(C3CCN(Cc4cccc(N5CCC(=O)NC5=O)c4)CC3)cc2cc1NC(=O)c1cccc(C(F)(F)F)c1` [GT-04750, N-(2-(1-(3-(2,4-dioxotetrahydropyrimidin-1(2H)-yl)benzyl)piperidin-4-yl)-6-methoxy-2H-indazol-5-yl)-3-(trifluoromethyl)benzamide] had a 50% inhibitory concentration (IC50) of 1 to 1.9 µM.

In turn, `COc1cc2nn(C3CCN(Cc4ccc(N5CCC(=O)NC5=O)c(F)c4)CC3)cc2cc1NC(=O)c1cccc(C(F)(F)F)c1` [GT-04751, N-(2-(1-(4-(2,4-dioxotetrahydropyrimidin-1(2H)-yl)-3-fluorobenzyl)piperidin-4-yl)-6-methoxy-2H-indazol-5-yl)-3-(trifluoromethyl)benzamide] showed an IC50 of 1 to 1.9 µM. As for `COc1cc2nn(C3CCN(Cc4ccc(N5CCC(=O)NC5=O)cc4)CC3)cc2cc1NC(=O)c1cccc(C(F)(F)F)c1` [GT-04752, N-(2-(1-(4-(2,4-dioxotetrahydropyrimidin-1(2H)-yl)benzyl)piperidin-4-yl)-6-methoxy-2H-indazol-5-yl)-3-(trifluoromethyl)benzamide], the figure is 1 to 1.9 µM; as for `COc1cc2nn(C3CCN(Cc4ccc(N5CCC(=O)NC5=O)cc4F)CC3)cc2cc1NC(=O)c1cccc(C(F)(F)F)c1` [GT-04753, N-(2-(1-(4-(2,4-dioxotetrahydropyrimidin-1(2H)-yl)-2-fluorobenzyl)piperidin-4-yl)-6-methoxy-2H-indazol-5-yl)-3-(trifluoromethyl)benzamide], 1 to 1.9 µM; as for `COc1cc2nn(C3CCN(Cc4ccc(C5CCC(=O)NC5=O)cc4)CC3)cc2cc1NC(=O)c1cccc(C(F)(F)F)n1` (centres unmarked) [GT-04761, N-(2-(1-(4-(2,6-dioxopiperidin-3-yl)benzyl)piperidin-4-yl)-6-methoxy-2H-indazol-5-yl)-6-(trifluoromethyl)picolinamide], 0.5 to 1 µM. The figure for `COc1cc2nn(C3CCN(Cc4ccc(C5CCC(=O)NC5=O)c(F)c4)CC3)cc2cc1NC(=O)c1cccc(C(F)(F)F)n1` (centres unmarked) [GT-04762, N-(2-(1-(4-(2,6-dioxopiperidin-3-yl)-3-fluorobenzyl)piperidin-4-yl)-6-methoxy-2H-indazol-5-yl)-6-(trifluoromethyl)picolinamide] is 1 to 1.9 µM; for `COc1cc2nn(C3CCN(Cc4cccc(NC5CCC(=O)NC5=O)c4)CC3)cc2cc1NC(=O)c1cccc(C(F)(F)F)n1` (centres unmarked) [GT-04763, N-(2-(1-(3-((2,6-dioxopiperidin-3-yl)amino)benzyl)piperidin-4-yl)-6-methoxy-2H-indazol-5-yl)-6-(trifluoromethyl)picolinamide] it is 0.5 to 1 µM. As for `COc1cc2nn(C3CCN(Cc4cccc(N5CCC(=O)NC5=O)c4)CC3)cc2cc1NC(=O)c1cccc(C(F)(F)F)n1` [GT-04774, N-(2-(1-(3-(2,4-dioxotetrahydropyrimidin-1(2H)-yl)benzyl)piperidin-4-yl)-6-methoxy-2H-indazol-5-yl)-6-(trifluoromethyl)picolinamide], the figure is 1 to 1.9 µM; as for `COc1cc2nn(C3CCN(Cc4ccc(N5CCC(=O)NC5=O)c(F)c4)CC3)cc2cc1NC(=O)c1cccc(C(F)(F)F)n1` [GT-04775, N-(2-(1-(4-(2,4-dioxotetrahydropyrimidin-1(2H)-yl)-3-fluorobenzyl)piperidin-4-yl)-6-methoxy-2H-indazol-5-yl)-6-(trifluoromethyl)picolinamide], 1 to 1.9 µM. For the molecule `COc1cc2nn(C3CCN(Cc4ccc(N5CCC(=O)NC5=O)cc4F)CC3)cc2cc1NC(=O)c1cccc(C(F)(F)F)n1` [GT-04777, N-(2-(1-(4-(2,4-dioxotetrahydropyrimidin-1(2H)-yl)-2-fluorobenzyl)piperidin-4-yl)-6-methoxy-2H-indazol-5-yl)-6-(trifluoromethyl)picolinamide], the IC50 was in the range of 1 to 1.9 µM.

The molecule `NC(=O)c1ncc(N2CCCCC2)nc1Nc1ccc(C2CCN(Cc3ccc(C4CCC(=O)NC4=O)cc3)CC2)cc1` (centres unmarked) [GT-04785, 3-((4-(1-(4-(2,6-dioxopiperidin-3-yl)benzyl)piperidin-4-yl)phenyl)amino)-5-(piperidin-1-yl)pyrazine-2-carboxamide] showed an IC50 of 0.5 to 1 µM.

`NC(=O)c1ncc(N2CCCCC2)nc1Nc1ccc(C2CCN(Cc3ccc(C4CCC(=O)NC4=O)c(F)c3)CC2)cc1` (centres unmarked) [GT-04786, 3-((4-(1-(4-(2,6-dioxopiperidin-3-yl)-3-fluorobenzyl)piperidin-4-yl)phenyl)amino)-5-(piperidin-1-yl)pyrazine-2-carboxamide] showed an IC50 below 0.5 µM. In the case of `NC(=O)c1ncc(N2CCCCC2)nc1Nc1ccc(C2CCN(Cc3cccc(N4CCC(=O)NC4=O)c3)CC2)cc1` [GT-04787, 3-((4-(1-(3-(2,4-dioxotetrahydropyrimidin-1(2H)-yl)benzyl)piperidin-4-yl)phenyl)amino)-5-(piperidin-1-yl)pyrazine-2-carboxamide], the IC50 is 0.5 to 1 µM.

Molecule `NC(=O)c1ncc(N2CCCCC2)nc1Nc1ccc(C2CCN(Cc3cccc(NC4CCC(=O)NC4=O)c3)CC2)cc1` (centres unmarked) [GT-04791, 3-((4-(1-(3-((2,6-dioxopiperidin-3-yl)amino)benzyl)piperidin-4-yl)phenyl)amino)-5-(piperidin-1-yl)pyrazine-2-carboxamide] showed an IC50 of 0.5 to 1 µM. `CN1CCN([C@@H]2CCCN(c3cnc(C(N)=O)c(Nc4ccc(C5CCN(Cc6ccc(C7CCC(=O)NC7=O)cc6)CC5)cc4)n3)C2)C1=O` (stereo partly drawn) [GT-04798, 3-((4-(1-(4-(2,6-dioxopiperidin-3-yl)benzyl)piperidin-4-yl)phenyl)amino)-5-((R)-3-(3-methyl-2-oxoimidazolidin-1-yl)piperidin-1-yl)pyrazine-2-carboxamide]: the IC50 was below 0.5 µM. Take `CN1CCN([C@@H]2CCCN(c3cnc(C(N)=O)c(Nc4ccc(C5CCN(Cc6ccc(C7CCC(=O)NC7=O)c(F)c6)CC5)cc4)n3)C2)C1=O` (stereo partly drawn) [GT-04799, 3-((4-(1-(4-(2,6-dioxopiperidin-3-yl)-3-fluorobenzyl)piperidin-4-yl)phenyl)amino)-5-((R)-3-(3-methyl-2-oxoimidazolidin-1-yl)piperidin-1-yl)pyrazine-2-carboxamide]: the IC50 is below 0.5 µM. The figure for `CN1CCN([C@@H]2CCCN(c3cnc(C(N)=O)c(Nc4ccc(C5CCN(Cc6cccc(N7CCC(=O)NC7=O)c6)CC5)cc4)n3)C2)C1=O` [GT-04800, (R)-3-((4-(1-(3-(2,4-dioxotetrahydropyrimidin-1(2H)-yl)benzyl)piperidin-4-yl)phenyl)amino)-5-(3-(3-methyl-2-oxoimidazolidin-1-yl)piperidin-1-yl)pyrazine-2-carboxamide] is 0.5 to 1 µM; for `CN1CCN([C@@H]2CCCN(c3cnc(C(N)=O)c(Nc4ccc(C5CCN(Cc6ccc(N7CCC(=O)NC7=O)c(F)c6)CC5)cc4)n3)C2)C1=O` [GT-04801, (R)-3-((4-(1-(4-(2,4-dioxotetrahydropyrimidin-1(2H)-yl)-3-fluorobenzyl)piperidin-4-yl)phenyl)amino)-5-(3-(3-methyl-2-oxoimidazolidin-1-yl)piperidin-1-yl)pyrazine-2-carboxamide] it is below 0.5 µM.
